The results in this text go back to patent US6827926B2, “Metallotetrapyrrolic photosensitizing agents for use in photodynamic therapy” (Miravant Pharmaceuticals, Inc., priority 2001, dated 2004).

Read-outs that look alike come from different tables or passages of the source.

The test system of data set [1] is normal uninjured rat carotid arteries (medial and adventitial cell populations). Put plainly: In vivo rat carotid artery acellularity after PDT. Further details: species or system Sprague Dawley rats. The settings on record: for Max % rat Artery Accelularity: Table 3; for Max % Rat Artery Accelularity: Table 4, drug dose 4 μMol. How it is done: The acute effects of metallated photosensitizers, in response to light activation, to cause depletion of cell populations in the medial and adventitial layers of vessels was measured in normal uninjured rat carotid arteries. […] Shortly before the light treatment, the rats were anaesthetized with 3.5% isoflurane (Abbott Laboratories, IL, USA) and the femoral region of the right leg was shaved and cleaned. […] A direct arteriotomy was performed and a light balloon catheter ([…] Medical Technologies, Inc) was introduced into the vessel and advanced retrogradely into a non-manipulated region of the left common carotid artery via the abdominal aorta. […] After light treatment and removal of the catheter, the right femoral artery was tied off and the skin wound was closed. Rats were sacrificed three days post treatment as this corresponds to the known peak time that vascular cells, e.g., VSMC and myofibroblasts, proliferate and migrate in response to an injury. The area spanning both left and right carotid arteries and surrounding tissue was harvested, fixed, embedded in paraffin and sectioned. The tissues were stained with Hematoxylin and Eosin (Fisher Scientific, PA) and examined by light microscopy to histologically assess the cell population density in the medial and adventitial layers of the PDT-treated vessel wall. […] Metallo azaporphyrins with Ga, Zn, Al, Sn were excited at 575 nm, while Pt azaporphyrins were excited at 532 nm.

The test system of data set [2] is V79 (Chinese Hamster Lung Fibroblasts) cells. Put plainly: In vitro cytotoxicity assay (light EC50, Alamar blue). It is filed as cell-based. As for the experimental part:
The in vitro biological evaluation of photosensitizers for their ability to photosensitize cells was performed using standard procedures. Using 5% FBS/DMEM phenol-free media, wells (180 μl/well) were plated with 5×10^4 V79 (Chinese Hamster Lung Fibroblasts) cells/ml into two 96 well plates. Plate 1 was light-treated and plate 2 served as a control. The plates were Incubated at 37° C., 5% CO2 for 3-5 hours. Standard solutions of the photosensitizers were dissolved in pre-filtered Dimethyl Sulfoxide (DMSO). Drug was diluted in 5% FBS DMEM phenol free medium. Final drug concentrations for light and dark experiments were 0.01, 0.1, 1.0, 3.0 and 5.0 μM. Twenty microliters of each concentration were added to six replicate wells to the light and dark plate. The plates were wrapped in aluminum foil to avoid photoactivation and mixed in a gyratory shaker for approximately 2 minutes. Both plates were incubated for 24 hours at 37° C., 5% CO2. After a 24 hour incubation, drug-containing media was aspirated from the plates. Each well was rinsed with 180 μl Hepes buffer salt solution (HBSS) then aspirated to remove the HBSS. 180 μl of fresh media were added (5% FBS/DMEM phenol-free) to each well. […] Plate 2 was not light treated. Immediately after light treatment, 20 μl Alamar blue was added to each well in plate 1. Alamar blue was added to plate 2 immediately after fresh media was added. The plates were mixed on a gyratory shaker for 5 min.
Both plates were incubated under dark conditions for 24 hours at 37° C., 5% CO2. After 24 hour incubation, the plates were read on a plate reader spectrophotometer (Spectra Max 250) at wavelengths 570 and 600 nm. and the percentage of cell survival recorded.
(The colour change of resazurin is a common sign of viable cells or microbes.)

The test system of data set [3] is normal skin of CD Hairless male rats. It counts as in vivo, rat. An excerpt:
We tested metallo- and metal-free tetrapyrroles systemically (see following section) for normal skin response in relation to the pharmacodynamic distribution of the photosensitizers in CD hairless rats. The skin of CD hairless rats are poorly developed, often referred to as hyperkeratotic, with various sized cystic hair follicles containing concentric lamellar accumulations of keratinaceous material, which are often associated with enlarged sebaceous glands. It quickly became apparent that gallium tetrapyrroles induced a marked clearing of the hyperkeratotic lesions in the treatment areas on the hairless rats. In fact, this clearing could be induced without necrosis of the skin. No other metallotetrapyrrole type produced such effects. This observation led us to assess the metallotetrapyrrolic compounds for skin restructuring effects both topically and systemically and for their ability to reduce hair growth in the following animal models.
Photosensitizer normal skin response as well as skin healing response, was evaluated using CD Hairless male rats. Photosensitizers were administered in an liposomal egg yolk phospholipid formulation at 1, 1.5 and 2 μmol/kg body weight formulation per dose group as a single bolus intravenous injection given through a marginal tail vein using a 27 gauge needle and a 1 cc tuberculin syringe. Normal skin responses were evaluated by irradiating several spots on the skin of the rat with a 532 nm laser (150 mW/cm^2, 150J, 1 cm diameter) at 1, 6, 24, 48, and 96 hrs post injection. Normal skin responses were evaluated and documented. The time at which the last spot is observed at the concentration injected is reported in the far right hand column in Tables 3, 4, 5 and 6. Skin samples were taken for histological evaluation at days 1, 10, 20 and 22 post light treatment. Rats were housed under normal lighting and all study procedures involving the test article were conducted under light filtered through blue and green Roscolox light filters to prevent photoactivation or degradation of the drug.

The mark [4] stands for this setting: Table 3 porphyrins, 24 h drug incubation, 532 nm, 1.25 J/cm^2, read-out: In Vitro EC50 Light.
The mark [5] stands for this setting: drug dose 1 μMol, 50 J/cm^2, 3 days post treatment.
The mark [6] stands for this setting: Table 3, time of last skin spot observed post injection, 1 μmol, 532 nm laser.

As for “8,13-diethyl-3,7,12,17-tetramethylporphrine-2,18-di(3′-hydroxypropyl) [Example 7a]”, the “Max % rat Artery Accelularity” value in data set [1] (drug dose 0.16 μMol) was 7%. Also, the “efficacy of free base porphyrins in the arterial rat model” value in data set [1] (at the time point, drug and light dose parameters used) was “poor efficacy”. Besides, the “efficacy in the rat arterial model” value in data set [1] (drug doses up to 2 μmol/Kg) is “no efficacy”. In data set [2] (setting [4]), the EC50 was determined as 400 nM. Moreover, the “Normal skin Response (1 μmol) in hrs” value in data set [3] (rat, in vivo) is “none”.

`CCOC(=O)CCC1=C(C)c2cc3[n-]c(cc4nc(cc5[n-]c(cc1n2)c(CCC(=O)OCC)c5C)C(CC)=C4C)c(CC)c3C.[Cl-].[Ga+3]` [Example 2, Gallium Chloride Mesoporphyrin Diethyl Ester]: in data set [1] (setting [5]), the “Max % rat Artery Accelularity” value came to 80%. The EC50 in data set [2] (setting [4]) was found to be 490 nM. Further, in data set [3] (rat, in vivo), the “Normal skin Response (1 μmol)” value is 24 h.

Take `CCOC(=O)CCC1=C(C)c2cc3[n-]c(cc4nc(cc5[n-]c(cc1n2)c(CCC(=O)OCC)c5C)C=C4C)cc3C.[Cl-].[Ga+3]` [Example 5, Gallium Chloride Deuteroporphyrin Diethyl Ester]: the “Max % rat Artery Accelularity” value in data set [1] (setting [5]) worked out at 80%. Moreover, the EC50 in data set [2] (setting [4]) came to 400 nM. The “Normal skin Response (1 μmol)” value in data set [3] (rat, in vivo) was 48 h.

As to `CC1=Cc2cc3[n-]c(cc4nc(cc5[n-]c(cc1n2)c(C)c5CCCO)C(CCCO)=C4C)cc3C.[Cl-].[Ga+3]` [Example 8, Gallium Chloride 8,13-desvinyl-3,7,12,17-tetramethylporphyrin-2,18-di(3′-hydroxypropyl)], the “Max % rat Artery Accelularity” value in data set [1] (setting [5]) was determined as 80%. In data set [2] (setting [4]), the EC50 came to 400 nM. The “Normal skin Response (1 μmol)” value in data set [3] (rat, in vivo) came out at 96 h.

Turning to `CCC1=C(C)c2cc3[n-]c(cc4nc(cc5[n-]c(cc1n2)c(C)c5CCC(=O)OC)C(CCC(=O)OC)=C4C)c(C)c3CC.[Zn+2]` [Example 33, Zinc Mesoporphyrin Dimethyl Ester], the “Max % rat Artery Accelularity” value in data set [1] (setting [5]) was determined as 0%. The “Normal skin Response (1 μmol)” value in data set [3] (rat, in vivo) was determined as 24 h.

Consider `COC(=O)CCC1=C(C)c2cc3[n-]c(cc4nc(cc5[n-]c(cc1n2)c(CCC(=O)OC)c5C)C(C)=C4C=CCN(C)C)c(C)c3C=CCN(C)C.[Ga+3].[OH-]` [Example 43, Gallium Hydroxy 3,8-Bis-(N,N-dimethylaminoprop-2-en-3-yl)deuteroporphyrin dimethyl ester], for which, in data set [2] (setting [4]), the EC50 came out at 2450 nM. The “Normal skin Response (1 μmol) in hrs” value in data set [3] (rat, in vivo) is “None”.

Take `CCC1=C(C)C2=NC1=Cc1c(C)c(CC)c3[n]1[Pt][n]1c(c(C)c(CCCC(=O)OC)c1=CC1=NC(=C3)C(C)=C1CCCC(=O)OC)=C2` [Example 47, Platinum 8,13-diethyl-3,7,12,17-tetramethylporphyrin-2,18-di(butanoic acid methyl ester)]: the EC50 in data set [2] (setting [4]) worked out at 200 nM. The “Normal skin Response (1 μmol)” value in data set [3] (setting [6]) was 48 h.

Consider `CCC1=C(C)C2=[N+]3C1=Cc1c(C)c(CC)c4[n]1[Zn-2]31[n]3c(c(C)c(CCC(=O)NCCCN5CCOCC5)c3=CC3=[N+]1C(=C4)C(C)=C3CCC(=O)NCCCN1CCOCC1)=C2` (stereo not shown) [Example 63, Zinc Mesoporphyrin 3-(N-morpholino)propylamide], for which the EC50 in data set [2] (setting [4]) amounted to 25 nM. Besides, the “Normal skin Response (1 μmol) in hrs” value in data set [3] (rat, in vivo) is recorded as “None”.

In the case of `CCC1=C(C)c2cc3[n-]c(cc4nc(cc5[n-]c(cc1n2)c(C)c5CCC(=O)NCCCO)C(CCC(=O)NCCCO)=C4C)c(C)c3CC.[Cl-].[Ga+3]` [Example 66, Gallium Chloride Mesoporphyrin di(3-hydroxypropylamide)], in data set [2] (setting [4]), the EC50 was 200 nM. In addition, the “Normal skin Response (1 μmol) in hrs” value in data set [3] (rat, in vivo) is given as “None”.

As for `CCC1=C(C)C2=[N+]3C1=Cc1c(C)c(CC)c4[n]1[Ga-2]31([OH])[n]3c(c(C)c(CCC(=O)NCCN(C)C)c3=CC3=[N+]1C(=C4)C(C)=C3CCC(=O)NCCN(C)C)=C2` [Example 70, Gallium Hydroxy Mesoporphyrin di-(N,N-dimethylaminoethylamide)], in data set [2] (setting [4]), the EC50 stood at 1700 nM. In addition, the “Normal skin Response (1 μmol) in hrs” value in data set [3] (rat, in vivo) is given as “None”.

Take `CCC1=C(C)c2cc3[nH]c(cc4nc(cc5[nH]c(cc1n2)c(C)c5CCC(=O)NCCN(C)C)C(CCC(=O)NCCN(C)C)=C4C)c(C)c3CC.[Pt]` [Example 71, Platinum Mesoporphyrin di(N,N-dimethylaminoethylamide)]: the EC50 in data set [2] (setting [4]) came out at 200 nM. Also, in data set [3] (rat, in vivo), the “Normal skin Response (1 μmol)” value is 96 h.

As to `CCC1=C(C)c2cc3[n-]c(cc4nc(cc5[n-]c(cc1n2)c(C)c5CC)C(C)=C4CCCN1CCCC1)c(CCCN1CCCC1)c3C.[In+3].[OH-]` [Example 76, Indium hydroxy 8,13-diethyl-3,7,12,17-tetramethylporphyrin-2,18-di(3-(N-pyrrolidino)propyl)], the EC50 in data set [2] (setting [4]) came to 20 nM. The “Normal skin Response (1 μmol)” value in data set [3] (setting [6]) worked out at 96 h.

For `CCOP(=O)(CCCC1=C(C)c2cc3cc(C)c(cc4nc(cc5[n-]c(cc1n2)c(CCCP(=O)(OCC)OCC)c5C)C(C)=C4)[n-]3)OCC.[Cl-].[In+3]` [Example 81, Indium Chloride 3,7,12,17-tetramethylporphyrin-2,18-di((3′-diethylphosphono)propyl)], in data set [2] (setting [4]), the EC50 is 400 nM. The “Normal skin Response (1 μmol)” value in data set [3] (setting [6]) came to 48 h. For the same compound, the “photodynamic activity in vivo” value in data set [3] (text b240) is reported as “photodynamically active in vivo”.

`CCC1=C(CC)C2=[N+]3C1=Nc1c(CC)c(CC)c4[n]1[Ga-2]31([OH])[n]3c(c(C)c(CCC(=O)[O-])c3=CC3=[N+]1C(=C4)C(C)=C3CCC(=O)[O-])=C2.[Na+].[Na+]` [Example 88, Gallium Hydroxy 7,8,12,13-tetraethyl-12,17-dimethyl-10-azaporphyrin-2,18-di(propionic acid Sodium Salt)]: the “acellularity following PDT of rat arteries at longer treatment times post injection” value in data set [1] (16, 24 hrs post injection) was “significant acellularity”. Moreover, the “accelularity in rat artery at a four hour treatment point” value in data set [1] (4 hrs post administration) was 10%. For the same compound, the “Max % Rat Artery Accelularity” value in data set [1] (4 hrs) was 10 (4 hrs) %. Besides, in data set [1] (24 hrs), the “Max % Rat Artery Accelularity” value was 100 (24 hrs) %. Besides, in data set [3] (rat, in vivo), the “Normal skin Response (1 μmol) in hrs” value is “None” and the “normal skin response at the drug doses used” value is recorded as “no observed normal skin response”.

`CCC1=C(CC)C2=Nc3c(CC)c(CC)c4[n]3[In]([Cl])[n]3c(c(C)c(CCCOC)c3=CC3=NC(=C4)C(C)=C3CCCOC)=CC1=N2` [Example 107, Indium Chloride 7,8,12,13-tetraethyl-12,17-dimethyl-10-azaporphyrin-2,18-di(3-methoxypropyl)]: in data set [2] (Table 4 azaporphyrins, 575 nm (Pt azaporphyrins 532 nm), 1.25 J/cm^2, read-out: In Vitro EC(50)), the EC50 stood at 50 nM. Moreover, in data set [3] (rat, in vivo), the “Normal skin Response (1 μmol)” value was 96 h.

Turning to “Platinum Mesoporphyrin di(2-ethoxyethanolamide) [Example 69]”, the EC50 in data set [2] (setting [4]) amounted to 500 nM. In data set [3] (rat, in vivo), the “Normal skin Response (1 μmol) in hrs” value is “None”.
